The text below walks through data of publication PMC10496123, “Potent Antifungal Activity of Penta-O-galloyl-β-D-Glucose against Drug-Resistant Candida albicans, Candida auris, and Other Non-albicans Candida Species” (ACS Infectious Diseases, 2023).

Molecules are shown by their SMILES. ≈ marks a conversion by molar mass, not a printed value. Where “and” joins values, the source holds several entries; their conditions need not be identical. Equal values may be shown once.

A short description of data set [1]: LDH chemical-induced cytotoxicity. It is filed as cell-based. Here is the method:
(§1) Hek293 cells were purchased from BEI Resources. HaCaT cells were purchased from ATCC. HepG2 cells were provided by Dr. Edward Morgan (Emory University). Mammalian cell cultures were maintained in Dulbecco’s modified Eagle’s medium with L-glutamine and 4.5 g L^–1 glucose (Corning) supplemented with 10% fetal bovine serum (Avantor) and a 100× combination solution of 10,000 IU mL^–1 penicillin and 10,000 μg mL^–1 streptomycin (Corning) at 37 °C, 5% CO2. Mammalian cultures at 70–80% confluency were used for cell viability and cytotoxicity experiments.
The mammalian culture was standardized to 4 × 10^3 cells per 100 μL. Cells were allowed to attach and incubate for 24 h before growth media was replaced with treatment media (PGG, 16–512 μg mL^–1) or an equivalent volume of the DMSO vehicle, followed by incubation for 24 h. Plates were then evaluated with an LDH cytotoxicity assay (G Biosciences) and processed according to the manufacturer’s protocol for chemical-induced cytotoxicity. Experiments were repeated in triplicate with three technical replicates per treatment and on different days.

The test system of data set [2] is HaCaT cells. Briefly: CellTiter-Glo cell viability/proliferation (relative ATP). Format: cell-based. The settings on record: Homo sapiens, 24 h, read-out: IC50 (viable cell number, relative ATP). Here is the method:
as §1
(§2) ATP content as a marker for the relative viable cell number was measured with the CellTiter-Glo Luminescent Cell Viability assay (Promega Corporation). The mammalian culture was standardized at 4 × 10^3 cells per 100 μL in a Costar 3610 white plate, clear bottom 96-well plates (Corning). Cells were allowed to attach and incubate for 24 h before growth media was replaced with treatment media (PGG, 16–512 μg mL^–1) or an equivalent volume of DMSO, followed by incubation for 24 h. After incubation with treatment, plates were equilibrated to room temperature for 1 h, and then 100 μL of CellTiter-Glo reagent was added to each well and mixed for 2 min. Plates were allowed to incubate at room temperature for 10 min before luminosity was measured with an integration time of 1 s via a BioTek Cytation3 plate reader. The relative viable cell number was measured by comparing treatment samples to untreated controls. Experiments were repeated in triplicate with three technical replicates per treatment and on different days.

The subject of data set [3] is Hek293 cells. Described as above. Format: cell-based. The settings on record: Homo sapiens, HEK293, 24 h; read-out: IC50 (viable cell number reduced by 50%, relative ATP). As to the method: as §1, §2
Data set [4] deals with HepG2 cells. Described as above. It is filed as cell-based. The settings on record: Homo sapiens, HepG2, 24 h; read-out: IC50 (viable cell number reduced by 50%, relative ATP). As to the method:
as §1, §2

Data set [5] relates to C. albicans wild type (CAF2-1) and cdr1Δ/Δ cdr2Δ/Δ mdr1Δ/Δ flu1Δ/Δ. Briefly: microbe, parasite or virus in culture. The settings on record: for MIC90: Candida albicans, 72 h, RPMI-1640, 72 h, 30 °C, OD600. It is filed as cell-based, Candida albicans.
For data set [6], the system named is C. glabrata CDC325. Briefly: Iron supplementation growth inhibition assay. Format: cell-based, Candida glabrata. The settings on record: 10 mM iron (II) or iron (III); PGG 4–16 μg mL^–1; 48 h. Here is the method:
For iron supplementation assays, growth inhibition assays were performed by microbroth dilution following the guidelines set by the CLSI.[58] A solution of iron (II) sulfate and iron (III) sulfate (VWR) was dissolved in deionized water to a concentration of 10 mM and added to treated wells at the beginning of incubation. Growth inhibition was measured after 48 h. Percent growth inhibition was determined by comparing treatments to vehicle controls. Iron supplementation experiments were repeated in duplicate with three technical replicates per treatment and on different days.

The subject of data set [7] is C. albicans 90028. Kind of data set: Media supplementation (Mg, Ca, Mn, Zn) growth inhibition assay. Format: cell-based, Candida albicans. As to the method: For media supplementation experiments, magnesium sulfate (Alfa Aesar), manganese sulfate, zinc sulfate, and calcium chloride (Ward Science) were dissolved in RPMI-1640 media and, after 24 h, added at a final concentration of 1 mM. Growth inhibition was measured 24 h after media supplementation. Percent growth inhibition was determined by comparing treatments to vehicle controls. Media supplementation experiments were repeated in triplicate with four technical replicates per treatment and on different days. page 6: Figure S5. Effect of supplemental cations on growth inhibition of penta-O-galloyl- β-D-glucose against C. albicans. C. albicans.90028 was treated with PGG alone and in combination with 1 mM magnesium (Mg2+) or 1 mM calcium (Ca2+). The data are plotted as mean % growth inhibition ± SD as compared to vehicle controls from two independent experiments. Dotted line represents 90% growth inhibition. S6 (1 picture or pasted object on this page, not shown here) page 7: Figure S6. Effect of supplemental metal ions on growth inhibition of penta-O- galloyl-β-D-glucose against C. albicans. C. albicans 90028 was treated with PGG alone and in combination with 1 mM manganese (Mn2+) or 1 mM zinc (Zn2+). The data are plotted as mean % growth inhibition ± SD as compared to vehicle controls from two independent experiments . Dotted line represents 90% growth inhibition . Statistical analysis was done using 2 -way ANOVA with multiple comparisons. The symbol (*) […] S7 (1 picture or pasted object on this page, not shown here)

In data set [8] the test system is Staphylococcus aureus (various strains). The arrangement: method as in doi:10.1016/j.foodchem.2010.04.072. The settings on record: antibacterial; possibly iron chelation; cited from earlier work.
Data set [9] has as its system MRSA (various strains). The settings on record: antibacterial; possibly iron chelation; cited from earlier work.
In data set [10] the test system is HCT-116 cells. Set-up: method as in PMID 27196315, PMID 29778287. The settings on record: inhibition of proliferation; cited from earlier work.
For data set [11], the system named is MDA-MB-468. Set-up: method as in PMID 33707603. The settings on record: induction of apoptosis; cited from earlier work.
In data set [12] the test system is influenza A. The arrangement: method as in PMID 35033970. The settings on record: interference with viral replication; cited from earlier work.
Data set [13] has as its system Acinetobacter baumanii. Set-up: method as in PMID 32948818. The settings on record: 21 daily passages; cited from earlier work.
For data set [14], the system named is rats. The settings on record: up to 120 mg/kg/day intravenously in rats; cited from earlier work.
For data set [15] the following is noted: after oral administration in mice; cited from earlier work.

As for `O=C(OC[C@H]1O[C@@H](OC(=O)c2cc(O)c(O)c(O)c2)[C@H](OC(=O)c2cc(O)c(O)c(O)c2)[C@@H](OC(=O)c2cc(O)c(O)c(O)c2)[C@@H]1OC(=O)c1cc(O)c(O)c(O)c1)c1cc(O)c(O)c(O)c1` [PGG, penta-O-galloyl-β-D-glucose], the CC50 (in general, the concentration giving 50% cytotoxicity) at 24 h in data set [1] (HaCaT cells (keratinocytes), HaCaT (human keratinocytes)) is over 272 µM; in data set [1] (HaCaT cells (keratinocytes), HaCaT (human keratinocytes), serum-supplemented medium), over 256 µg/mL; in [1] (Hek293 cells (kidney), Hek293 (human kidney)), over 272 µM; in data set [1] (Hek293 cells (kidney), Hek293 (human kidney), serum-supplemented medium), over 256 µg/mL; in data set [1] (HepG2 cells (liver), HepG2 (human liver)), over 272 µM; in data set [1] (HepG2 cells (liver), HepG2 (human liver), serum-supplemented medium), over 256 µg/mL. For the same compound, the IC50 (in general, the midpoint of a concentration-inhibition curve) is 32 µg/mL and 34 µM in data set [2]; 64 µg/mL and 68 µM in data set [3]; 68 µM and 64 µg/mL in [4]. Further, the MIC90 in [5] (Wild type (CAF2-1)) and in [5] (cdr1Δ/Δ cdr2Δ/Δ mdr1Δ/Δ flu1Δ/Δ) was over 5 µg/mL in each case. Besides, the “Effect of absence of major efflux pumps (CDR1, CDR2, FLU1, MDR1) on sensitivity” value in data set [5] (mutant versus wild type) is “did not modify sensitivity”. The “Reduction of the growth inhibitory activity on iron supplementation” value in data set [6] is listed as 80–100%. Moreover, the “Effect of cation treatment (calcium, magnesium) on growth inhibition” value in [7] (1 mM Mg2+ or Ca2+) is given as “no significant effect”. In addition, in data set [7] (1 mM Mn2+, at 0.5× MIC of PGG), the “Effect of manganese supplementation on growth inhibition” value is on record as “minor effect”. Besides, the “Effect of zinc supplementation on growth inhibition” value in data set [7] (1 mM Zn2+) was “no effect”. Moreover, the IC50/EC50 is 16 to 32 µg/mL in data set [8]; 16 to 32 µg/mL in [9]; 1.61 µM in [10]; 35.72 µM in data set [11]; 5.3 µg/mL (≈ 5.63 µM) in data set [12]. Besides, the Development of resistance result in [13] is “did not develop resistance”. The Tolerability result in data set [14] is “no ill effects”. Also, in [15], the Detection in plasma result is “could not be detected”.
